From the supplement of paper PMC10307832

Experiments:
Assay in all cases: relative viability (nuclei count vs DMSO), 5 days (fraction); higher = more cells survive
[1] = tested on: NCI-H647
Outline: (§1)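 Dosing by pin tool came one day after lung cancer cell lines were seeded in 1536-well plates, using either one drug or a fixed anchor-drug dose plus five library-drug doses (not always all listed) in √10 steps. After 5 days, nuclei were counted on 4× images. Relative viability is treated-well nuclei count divided by vehicle-well nuclei count, and values are medians of duplicate plates.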

[2] = tested on: NCI-H2347
Outline: as §1

[3] = tested on: HARA
Outline: as §1

[4] = tested on: NCI-H2228
Outline: as §1

[5] = tested on: NCI-H322M
Outline: as §1

[6] = tested on: NCI-H358
Outline: as §1

[7] = tested on: UMC-11
Outline: as §1

[8] = tested on: NCI-H838
Outline: as §1

[9] = tested on: NCI-H1355
Outline: as §1

[10] = tested on: SK-MES-1
Outline: as §1

[11] = tested on: HOP-62
Outline: as §1

[12] = tested on: NCI-H2170
Outline: as §1

[13] = tested on: NCI-H1993
Outline: as §1

[14] = tested on: EKVX
Outline: as §1

[15] = tested on: NCI-H1755
Outline: as §1

[16] = tested on: NCI-H1395
Outline: as §1

[17] = tested on: NCI-H2342
Outline: as §1

[18] = tested on: NCI-H1793
Outline: as §1

[19] = tested on: PC-14
Outline: as §1

[20] = tested on: COR-L23
Outline: as §1

[21] = tested on: NCI-H1734
Outline: as §1

[22] = tested on: NCI-H522
Outline: as §1

[23] = tested on: NCI-H2009
Outline: as §1

[24] = tested on: COR-L 105
Outline: as §1

C[C@@H]1CN(CC(=O)Nc2ccc3c(c2)Cc2cccc(-c4cc(=O)cc(N5CCOCC5)o4)c2S3)C[C@H](C)O1 + CCNC(=O)c1noc(-c2cc(C(C)C)c(O)cc2O)c1-c1ccc(CN2CCOCC2)cc1 [Luminespib] (partner 0.01 µM)
relative viability ([1]; first compound 0.04 µM): 0.121
relative viability ([1]; first compound 0.1265 µM): 0.153
relative viability ([1]; first compound 0.4 µM): 0.152
relative viability ([1]; first compound 4 µM): 0.163
relative viability ([2]; first compound 0.04 µM): 0.926
relative viability ([2]; first compound 0.1265 µM): 0.475
relative viability ([2]; first compound 0.4 µM): 0.438
relative viability ([2]; first compound 4 µM): 0.534
relative viability ([3]; first compound 0.1265 µM): 0.675
relative viability ([3]; first compound 0.4 µM): 0.471
relative viability ([3]; first compound 4 µM): 0.89
relative viability ([4]; first compound 0.04 µM): 0.15
relative viability ([4]; first compound 0.1265 µM): 0.128
relative viability ([4]; first compound 0.4 µM): 0.171
relative viability ([4]; first compound 4 µM): 0.133
relative viability ([5]; first compound 0.04 µM): 0.767
relative viability ([5]; first compound 0.1265 µM): 0.765
relative viability ([5]; first compound 0.4 µM): 0.839
relative viability ([5]; first compound 4 µM): 0.841
relative viability ([6]; first compound 0.04 µM): 0.429
relative viability ([6]; first compound 0.1265 µM): 0.308
relative viability ([6]; first compound 0.4 µM): 0.399
relative viability ([6]; first compound 4 µM): 0.233
relative viability ([7]; first compound 0.04 µM): 1.1
relative viability ([7]; first compound 0.1265 µM): 0.903
relative viability ([7]; first compound 0.4 µM): 1.03
relative viability ([7]; first compound 4 µM): 0.675
relative viability ([8]; first compound 0.04 µM): 0.383
relative viability ([8]; first compound 0.1265 µM): 0.278
relative viability ([8]; first compound 0.4 µM): 0.286
relative viability ([8]; first compound 4 µM): 0.258
relative viability ([9]; first compound 0.04 µM): 0.678
relative viability ([9]; first compound 0.1265 µM): 0.693
relative viability ([9]; first compound 0.4 µM): 0.704
relative viability ([9]; first compound 4 µM): 0.805
relative viability ([10]; first compound 0.04 µM): 0.659
relative viability ([10]; first compound 0.1265 µM): 0.764
relative viability ([10]; first compound 0.4 µM): 0.664
relative viability ([10]; first compound 4 µM): 0.475
relative viability ([11]; first compound 0.04 µM): 0.917
relative viability ([11]; first compound 0.1265 µM): 0.898
relative viability ([11]; first compound 0.4 µM): 0.92
relative viability ([11]; first compound 4 µM): 0.907
relative viability ([12]; first compound 0.04 µM): 0.661
relative viability ([12]; first compound 0.1265 µM): 0.67
relative viability ([12]; first compound 0.4 µM): 0.677
relative viability ([12]; first compound 4 µM): 0.86
relative viability ([13]; first compound 0.04 µM): 0.872
relative viability ([13]; first compound 0.1265 µM): 0.913
relative viability ([13]; first compound 0.4 µM): 0.621
relative viability ([13]; first compound 4 µM): 0.762
relative viability ([14]; first compound 0.04 µM): 0.802
relative viability ([14]; first compound 0.1265 µM): 0.874
relative viability ([14]; first compound 0.4 µM): 0.955
relative viability ([14]; first compound 4 µM): 0.814
relative viability ([15]; first compound 0.04 µM): 0.398
relative viability ([15]; first compound 0.1265 µM): 0.361
relative viability ([15]; first compound 0.4 µM): 0.45
relative viability ([15]; first compound 4 µM): 0.258
relative viability ([16]; first compound 0.04 µM): 0.695
relative viability ([16]; first compound 0.1265 µM): 0.627
relative viability ([16]; first compound 0.4 µM): 0.69
relative viability ([16]; first compound 4 µM): 0.741
relative viability ([17]; first compound 0.04 µM): 0.706
relative viability ([17]; first compound 0.1265 µM): 0.641
relative viability ([17]; first compound 0.4 µM): 0.722
relative viability ([17]; first compound 4 µM): 0.662
relative viability ([18]; first compound 0.04 µM): 0.141
relative viability ([18]; first compound 0.1265 µM): 0.177
relative viability ([18]; first compound 0.4 µM): 0.164
relative viability ([18]; first compound 4 µM): 0.135
relative viability ([19]; first compound 0.04 µM): 0.142
relative viability ([19]; first compound 0.1265 µM): 0.122
relative viability ([19]; first compound 0.4 µM): 0.15
relative viability ([19]; first compound 4 µM): 0.144
relative viability ([20]; first compound 0.04 µM): 0.793
relative viability ([20]; first compound 0.1265 µM): 0.705
relative viability ([20]; first compound 0.4 µM): 0.729
relative viability ([20]; first compound 4 µM): 0.458
relative viability ([21]; first compound 0.04 µM): 0.264
relative viability ([21]; first compound 0.1265 µM): 0.212
relative viability ([21]; first compound 0.4 µM): 0.195
relative viability ([21]; first compound 4 µM): 0.291
relative viability ([22]; first compound 0.1265 µM): 1.17
relative viability ([22]; first compound 0.4 µM): 1.06
relative viability ([22]; first compound 4 µM): 0.896
relative viability ([23]; first compound 0.04 µM): 1.01
relative viability ([23]; first compound 0.1265 µM): 0.995
relative viability ([23]; first compound 0.4 µM): 0.983
relative viability ([23]; first compound 4 µM): 0.804
relative viability ([24]; first compound 0.04 µM): 0.882
relative viability ([24]; first compound 0.1265 µM): 0.719
relative viability ([24]; first compound 0.4 µM): 0.887
relative viability ([24]; first compound 4 µM): 0.783

C[C@@H]1CN(CC(=O)Nc2ccc3c(c2)Cc2cccc(-c4cc(=O)cc(N5CCOCC5)o4)c2S3)C[C@H](C)O1 + COc1cccc2cc(-c3nc([C@H]4CC[C@H](C(=O)O)CC4)n4ncnc(N)c34)[nH]c12 [OSI-027] (partner 0.5 µM)
relative viability ([1]; first compound 0.04 µM): 0.519
relative viability ([1]; first compound 0.1265 µM): 0.669
relative viability ([1]; first compound 0.4 µM): 0.497
relative viability ([1]; first compound 4 µM): 0.558
relative viability ([2]; first compound 0.04 µM): 0.465
relative viability ([2]; first compound 0.1265 µM): 0.417
relative viability ([2]; first compound 0.4 µM): 0.415
relative viability ([2]; first compound 4 µM): 0.4
relative viability ([3]; first compound 0.1265 µM): 0.499
relative viability ([3]; first compound 0.4 µM): 0.251
relative viability ([3]; first compound 4 µM): 0.412
relative viability ([4]; first compound 0.04 µM): 0.659
relative viability ([4]; first compound 0.1265 µM): 0.705
relative viability ([4]; first compound 0.4 µM): 0.483
relative viability ([4]; first compound 4 µM): 0.335
relative viability ([5]; first compound 0.04 µM): 0.485
relative viability ([5]; first compound 0.1265 µM): 0.643
relative viability ([5]; first compound 0.4 µM): 0.5
relative viability ([5]; first compound 4 µM): 0.493
relative viability ([6]; first compound 0.04 µM): 0.679
relative viability ([6]; first compound 0.1265 µM): 0.673
relative viability ([6]; first compound 0.4 µM): 0.852
relative viability ([6]; first compound 4 µM): 0.418
relative viability ([7]; first compound 0.04 µM): 0.51
relative viability ([7]; first compound 0.1265 µM): 0.464
relative viability ([7]; first compound 0.4 µM): 0.472
relative viability ([7]; first compound 4 µM): 0.352
relative viability ([8]; first compound 0.04 µM): 0.401
relative viability ([8]; first compound 0.1265 µM): 0.377
relative viability ([8]; first compound 0.4 µM): 0.312
relative viability ([8]; first compound 4 µM): 0.288
relative viability ([9]; first compound 0.04 µM): 0.447
relative viability ([9]; first compound 0.1265 µM): 0.472
relative viability ([9]; first compound 0.4 µM): 0.321
relative viability ([9]; first compound 4 µM): 0.335
relative viability ([10]; first compound 0.04 µM): 0.664
relative viability ([10]; first compound 0.1265 µM): 0.566
relative viability ([10]; first compound 0.4 µM): 0.503
relative viability ([10]; first compound 4 µM): 0.49
relative viability ([11]; first compound 0.04 µM): 0.828
relative viability ([11]; first compound 0.1265 µM): 0.797
relative viability ([11]; first compound 0.4 µM): 0.763
relative viability ([11]; first compound 4 µM): 0.881
relative viability ([12]; first compound 0.04 µM): 0.712
relative viability ([12]; first compound 0.1265 µM): 0.685
relative viability ([12]; first compound 0.4 µM): 0.581
relative viability ([12]; first compound 4 µM): 0.707
relative viability ([13]; first compound 0.04 µM): 0.578
relative viability ([13]; first compound 0.1265 µM): 0.603
relative viability ([13]; first compound 0.4 µM): 0.597
relative viability ([13]; first compound 4 µM): 0.551
relative viability ([14]; first compound 0.04 µM): 0.713
relative viability ([14]; first compound 0.1265 µM): 0.676
relative viability ([14]; first compound 0.4 µM): 0.712
relative viability ([14]; first compound 4 µM): 0.618
relative viability ([15]; first compound 0.04 µM): 0.697
relative viability ([15]; first compound 0.1265 µM): 0.651
relative viability ([15]; first compound 0.4 µM): 0.668
relative viability ([15]; first compound 4 µM): 0.578
relative viability ([16]; first compound 0.04 µM): 0.782
relative viability ([16]; first compound 0.1265 µM): 0.655
relative viability ([16]; first compound 0.4 µM): 0.539
relative viability ([16]; first compound 4 µM): 0.612
relative viability ([17]; first compound 0.04 µM): 0.647
relative viability ([17]; first compound 0.1265 µM): 0.506
relative viability ([17]; first compound 0.4 µM): 0.52
relative viability ([17]; first compound 4 µM): 0.58
relative viability ([18]; first compound 0.04 µM): 0.256
relative viability ([18]; first compound 0.1265 µM): 0.272
relative viability ([18]; first compound 0.4 µM): 0.247
relative viability ([18]; first compound 4 µM): 0.149
relative viability ([19]; first compound 0.04 µM): 1.02
relative viability ([19]; first compound 0.1265 µM): 0.761
relative viability ([19]; first compound 0.4 µM): 0.744
relative viability ([19]; first compound 4 µM): 0.653
relative viability ([20]; first compound 0.04 µM): 0.782
relative viability ([20]; first compound 0.1265 µM): 0.776
relative viability ([20]; first compound 0.4 µM): 0.73
relative viability ([20]; first compound 4 µM): 0.717
relative viability ([21]; first compound 0.04 µM): 0.655
relative viability ([21]; first compound 0.1265 µM): 0.598
relative viability ([21]; first compound 0.4 µM): 0.48
relative viability ([21]; first compound 4 µM): 0.67
relative viability ([22]; first compound 0.04 µM): 0.706
relative viability ([22]; first compound 0.1265 µM): 0.679
relative viability ([22]; first compound 0.4 µM): 0.742
relative viability ([22]; first compound 4 µM): 0.735
relative viability ([23]; first compound 0.04 µM): 0.712
relative viability ([23]; first compound 0.1265 µM): 0.648
relative viability ([23]; first compound 0.4 µM): 0.613
relative viability ([23]; first compound 4 µM): 0.448
relative viability ([24]; first compound 0.04 µM): 0.728
relative viability ([24]; first compound 0.1265 µM): 0.828
relative viability ([24]; first compound 0.4 µM): 0.823
relative viability ([24]; first compound 4 µM): 0.661
